Measurements from patent publication US4122034A, “Antimicrobial compositions” (Schering Corporation, priority 1975, dated 1978).
Values after ≈ are worked out from the molar mass of the structure shown.

Assays:
Type in all cases: cell-based
Bacteroides corrodens = experiment: In vitro activity against anaerobes in fluid Thioglycollate medium (Table II); conditions: Eikenella corrodens
Method: (§1) All the tests were carried out and (when necessary) scored under standard conditions. "MIC" means "minimum inhibitory concentration."
(§2) In vitro activity of 2-aminoalkyl-3-phenylindoles of the formula I
(§3) against anaerobes in fluid Thioglycollate medium

Bacteroides fragilis = experiment: as above
Method: as §1, §2, §3

Clostridium septicum = experiment: as above
Method: as §1, §2, §3

Clostridium novyi = experiment: as above
Method: as §1, §2, §3

Peptostreptococcus = experiment: as above
Method: as §1, §2, §3

Clostridium histolyticum = experiment: as above; conditions: Hathewaya histolytica
Method: as §1, §2, §3

Salmonella = experiment: In vitro antibacterial activity, dilution in Mueller Hinton Agar (Table I)
Method: as §1
(§4) In vitro Antibacterial Activity of 2-aminoalkyl-3-phenyl-
(§5) indoles of the formula I. Dilution in Mueller Hinton Agar pH 7.4

Proteus rettgeri = experiment: as above; conditions: Providencia rettgeri; 'Proteus rettgeri mirabilis' [sic]; Mueller Hinton Agar pH 7.4
Method: as §1, §4, §5

Proteus mirabilis = experiment: as above; conditions: Mueller Hinton Agar pH 7.4
Method: as §1, §4, §5

Pseudomonas acruginosa = experiment: as above
Method: as §1, §4, §5

Klebsiella = experiment: as above
Method: as §1, §4, §5

Streptococcus pyogenes = experiment: as above
Method: as §1, §4, §5

Proteus morganii = experiment: as above; conditions: Morganella morganii; strain Valz; Mueller Hinton Agar pH 7.4
Method: as §1, §4, §5

Proteus vulgaris = experiment: as above; conditions: strain Napol, Mueller Hinton Agar pH 7.4
Method: as §1, §4, §5

Staphylococcus aureus = experiment: as above; conditions: Mueller Hinton Agar pH 7.4
Method: as §1, §4, §5

Escherichia coli = experiment: as above
Method: as §1, §4, §5

Enterococcus = experiment: as above
Method: as §1, §4, §5

Trichophyton tonsurans = experiment: In vitro antifungal activity, dilutions in Sabouraud's Dextrose Broth (Table IV); conditions: after 96 hours
Method: as §1
(§6) In vitro Antifungal Activity of 2-amioalkyl-3-phenylindoles
(§7) of the formula I against Dermetophytes and Aspergillus.
(§8) Dilutions in Sabouraud's Dextrose Broth.

Trichophyton megninii = experiment: as above; conditions: Trichophyton rubrum; after 96 hours
Method: as §1, §6, §7, §8

Trichophyton discoides = experiment: as above; conditions: after 96 hours
Method: as §1, §6, §7, §8

Aspergillus sp. No. 3 = experiment: as above; conditions: after 96 hours
Method: as §1, §6, §7, §8

Epidermophyton floccosum = experiment: as above; conditions: after 96 hours
Method: as §1, §6, §7, §8

Trichophyton ascoides = experiment: as above; conditions: after 96 hours
Method: as §1, §6, §7, §8

Microsporum distortum = experiment: as above; conditions: after 96 hours
Method: as §1, §6, §7, §8

Trichophyton soudenense = experiment: as above; conditions: after 96 hours
Method: as §1, §6, §7, §8

Aspergillus niger 6275 = experiment: as above; conditions: after 96 hours
Method: as §1, §6, §7, §8

[1] = tested on: Trichophyton mentagrophytes; experiment: as above; conditions: 96 h
Method: as §1, §6, §7, §8

[2] = tested on: Trichophyton schoenleinii; experiment: as above; conditions: 96 h
Method: as §1, §6, §7, §8

Tricoderm sp. = experiment: as above; conditions: after 96 hours
Method: as §1, §6, §7, §8

Trichophyton gallinae = experiment: as above; conditions: after 96 hours
Method: as §1, §6, §7, §8

Microsporum nanum = experiment: as above; conditions: Nannizzia nana; after 96 hours
Method: as §1, §6, §7, §8

Trichophyton ferrugineum = experiment: as above; conditions: Microsporum ferrugineum; after 96 hours
Method: as §1, §6, §7, §8

Trichophyton rubrum = experiment: as above; conditions: 96 h
Method: as §1, §6, §7, §8

Trychomonas vaginalis = experiment: In vitro Anti-Trichomonal activity (Table VII)
Method: as §1
In vitro Anti-Trichomonal Activity of some 2-aminoalkyl-3-
phenyl-indenes of formula II.

Question: Which MIC (Bacteroides corrodens; 48 hrs) does the source give for `NCc1[nH]c2ccc(Cl)cc2c1-c1ccccc1` [C, 2-(1-aminomethyl)-5-chloro-3-phenylindole] here?
Answer: 3 µg/mL (≈ 11.7 µM)

Question: And the MIC (Bacteroides corrodens; 72 hrs)?
Answer: 3 µg/mL (≈ 11.7 µM)

Question: What about the MIC (Bacteroides fragilis; 48 hrs) of the same compound?
Answer: 3 µg/mL (≈ 11.7 µM)

Question: What about the MIC (Bacteroides fragilis; 72 hrs) of the same compound?
Answer: 3 µg/mL (≈ 11.7 µM)

Question: What about the MIC (Clostridium septicum; 48 hrs) of the same compound?
Answer: 3 µg/mL (≈ 11.7 µM)

Question: What about the MIC (Clostridium septicum; 72 hrs) of the same compound?
Answer: 3 µg/mL (≈ 11.7 µM)

Question: What about the MIC (Clostridium novyi; 48 hrs) of the same compound?
Answer: 3 µg/mL (≈ 11.7 µM)

Question: What about the MIC (Clostridium novyi; 72 hrs) of the same compound?
Answer: 3 µg/mL (≈ 11.7 µM)

Question: And the MIC (Peptostreptococcus; 48 hrs)?
Answer: 3 µg/mL (≈ 11.7 µM)

Question: What about the MIC (Peptostreptococcus; 72 hrs) of the same compound?
Answer: 3 µg/mL (≈ 11.7 µM)

Question: And the MIC (Clostridium histolyticum; 48 hrs)?
Answer: 3 µg/mL (≈ 11.7 µM)

Question: And the MIC (Clostridium histolyticum; 72 hrs)?
Answer: 3 µg/mL (≈ 11.7 µM)

Question: And the MIC (Salmonella; TYPHI, pH 7.4, B typhi, Mueller Hinton Agar pH 7.4)?
Answer: 3 µg/mL (≈ 11.7 µM)

Question: What about the MIC (Salmonella; pH 7.4, C1 Oao, Mueller Hinton Agar pH 7.4) of the same compound?
Answer: 3 µg/mL (≈ 11.7 µM)

Question: And the MIC (Salmonella; pH 7.4, C2 Cuban, Mueller Hinton Agar pH 7.4)?
Answer: 3 µg/mL (≈ 11.7 µM)

Question: And the MIC (Salmonella; pH 7.4, C2 Napc, Mueller Hinton Agar pH 7.4)?
Answer: 3 µg/mL (≈ 11.7 µM)

Question: What about the MIC (Salmonella; pH 7.4, Salmonella ent. 1, Mueller Hinton Agar pH 7.4) of the same compound?
Answer: 7.5 µg/mL (≈ 29.2 µM)

Question: What about the MIC (Proteus rettgeri) of the same compound?
Answer: 7.5 µg/mL (≈ 29.2 µM)

Question: And the MIC (Proteus mirabilis; pH 7.4, strain Hard)?
Answer: 7.5 µg/mL (≈ 29.2 µM)

Question: What about the MIC (Proteus mirabilis; pH 7.4, strain Peras) of the same compound?
Answer: 7.5 µg/mL (≈ 29.2 µM)

Question: What about the MIC (Pseudomonas acruginosa; pH 7.4, strain 130, Mueller Hinton Agar pH 7.4) of the same compound?
Answer: 17.5 µg/mL (≈ 68.2 µM)

Question: What about the MIC (Pseudomonas acruginosa; pH 7.4, strain 138, Mueller Hinton Agar pH 7.4) of the same compound?
Answer: 17.5 µg/mL (≈ 68.2 µM)

Question: What about the MIC (Pseudomonas acruginosa; pH 7.4, strain 762, Mueller Hinton Agar pH 7.4) of the same compound?
Answer: 37.5 µg/mL (≈ 146 µM)

Question: What about the MIC (Pseudomonas acruginosa; pH 7.4, strain 8709, Mueller Hinton Agar pH 7.4) of the same compound?
Answer: 17.5 µg/mL (≈ 68.2 µM)

Question: What about the MIC (Pseudomonas acruginosa; pH 7.4, strain Trav. 1, Mueller Hinton Agar pH 7.4) of the same compound?
Answer: 17.5 µg/mL (≈ 68.2 µM)

Question: What about the MIC (Klebsiella; pH 7.4, strain 121, Mueller Hinton Agar pH 7.4) of the same compound?
Answer: 3 µg/mL (≈ 11.7 µM)

Question: What about the MIC (Klebsiella; pH 7.4, strain 3020, Mueller Hinton Agar pH 7.4) of the same compound?
Answer: 3 µg/mL (≈ 11.7 µM)

Question: What about the MIC (Klebsiella; pH 7.4, strain AD17, Mueller Hinton Agar pH 7.4) of the same compound?
Answer: 7.5 µg/mL (≈ 29.2 µM)

Question: And the MIC (Klebsiella; pH 7.4, strain AD22, Mueller Hinton Agar pH 7.4)?
Answer: 3 µg/mL (≈ 11.7 µM)

Question: And the MIC (Klebsiella; pH 7.4, strain G3694, Mueller Hinton Agar pH 7.4)?
Answer: 3 µg/mL (≈ 11.7 µM)

Question: What about the MIC (Streptococcus pyogenes; pH 7.4, strain 27, Mueller Hinton Agar pH 7.4) of the same compound?
Answer: 7.5 µg/mL (≈ 29.2 µM)

Question: And the MIC (Streptococcus pyogenes; pH 7.4, strain C, Mueller Hinton Agar pH 7.4)?
Answer: 7.5 µg/mL (≈ 29.2 µM)

Question: What about the MIC (Streptococcus pyogenes; pH 7.4, strain Cruz, Mueller Hinton Agar pH 7.4) of the same compound?
Answer: 3 µg/mL (≈ 11.7 µM)

Question: And the MIC (Proteus morganii)?
Answer: 7.5 µg/mL (≈ 29.2 µM)

Question: And the MIC (Proteus vulgaris)?
Answer: 7.5 µg/mL (≈ 29.2 µM)

Question: And the MIC (Staphylococcus aureus; 209P, pH 7.4, strain 209P)?
Answer: 7.5 µg/mL (≈ 29.2 µM)

Question: What about the MIC (Staphylococcus aureus; pH 7.4, strain 59N) of the same compound?
Answer: 7.5 µg/mL (≈ 29.2 µM)

Question: And the MIC (Staphylococcus aureus; pH 7.4, strain Gray)?
Answer: 7.5 µg/mL (≈ 29.2 µM)

Question: And the MIC (Staphylococcus aureus; pH 7.4, strain Wood)?
Answer: 7.5 µg/mL (≈ 29.2 µM)

Question: What about the MIC (Staphylococcus aureus; pH 7.4, strain Zeigler) of the same compound?
Answer: 3 µg/mL (≈ 11.7 µM)

Question: What about the MIC (Escherichia coli; pH 7.4, strain 777, Mueller Hinton Agar pH 7.4) of the same compound?
Answer: 3 µg/mL (≈ 11.7 µM)

Question: And the MIC (Escherichia coli; pH 7.4, strain 1574-1, Mueller Hinton Agar pH 7.4)?
Answer: 3 µg/mL (≈ 11.7 µM)

Question: What about the MIC (Escherichia coli; pH 7.4, strain 4195, Mueller Hinton Agar pH 7.4) of the same compound?
Answer: 3 µg/mL (≈ 11.7 µM)

Question: What about the MIC (Escherichia coli; pH 7.4, strain 10536, Mueller Hinton Agar pH 7.4) of the same compound?
Answer: 7.5 µg/mL (≈ 29.2 µM)

Question: What about the MIC (Escherichia coli; pH 7.4, strain JR66, Mueller Hinton Agar pH 7.4) of the same compound?
Answer: 3 µg/mL (≈ 11.7 µM)

Question: What about the MIC (Enterococcus; pH 7.4, strain 373, Mueller Hinton Agar pH 7.4) of the same compound?
Answer: 7.5 µg/mL (≈ 29.2 µM)

Question: What about the MIC (Enterococcus; pH 7.4, strain 0928/72, Mueller Hinton Agar pH 7.4) of the same compound?
Answer: 7.5 µg/mL (≈ 29.2 µM)

Question: And the MIC (Trichophyton tonsurans)?
Answer: 7.5 µg/mL (≈ 29.2 µM)

Question: And the MIC (Trichophyton megninii)?
Answer: 7.5 µg/mL (≈ 29.2 µM)

Question: And the MIC (Trichophyton discoides)?
Answer: 17.5 µg/mL (≈ 68.2 µM)

Question: And the MIC (Aspergillus sp. No. 3)?
Answer: 17.5 µg/mL (≈ 68.2 µM)

Question: What about the MIC (Epidermophyton floccosum) of the same compound?
Answer: 17.5 µg/mL (≈ 68.2 µM)

Question: And the MIC (Trichophyton ascoides)?
Answer: 7.5 µg/mL (≈ 29.2 µM)

Question: What about the MIC (Microsporum distortum) of the same compound?
Answer: 7.5 µg/mL (≈ 29.2 µM)

Question: What about the MIC (Trichophyton soudenense) of the same compound?
Answer: 17.5 µg/mL (≈ 68.2 µM)

Question: And the MIC (Aspergillus niger 6275)?
Answer: 17.5 µg/mL (≈ 68.2 µM)

Question: And the MIC ([1]; strain A, after 96 hours)?
Answer: 7.5 µg/mL (≈ 29.2 µM)

Question: What about the MIC ([1]; strain B, after 96 hours) of the same compound?
Answer: 7.5 µg/mL (≈ 29.2 µM)

Question: What about the MIC ([1]; strain C, after 96 hours) of the same compound?
Answer: 3 µg/mL (≈ 11.7 µM)

Question: What about the MIC ([1]; strain H377, after 96 hours) of the same compound?
Answer: 17.5 µg/mL (≈ 68.2 µM)

Question: And the MIC ([1]; strain Young, after 96 hours)?
Answer: 7.5 µg/mL (≈ 29.2 µM)

Question: And the MIC ([2]; strain 2, after 96 hours)?
Answer: 3 µg/mL (≈ 11.7 µM)

Question: And the MIC ([2]; strain not given, after 96 hours)?
Answer: 17.5 µg/mL (≈ 68.2 µM)

Question: And the MIC (Tricoderm sp.)?
Answer: 7.5 µg/mL (≈ 29.2 µM)

Question: What about the MIC (Trichophyton gallinae) of the same compound?
Answer: 37.5 µg/mL (≈ 146 µM)

Question: What about the MIC (Microsporum nanum) of the same compound?
Answer: 3 µg/mL (≈ 11.7 µM)

Question: And the MIC (Trichophyton ferrugineum)?
Answer: 17.5 µg/mL (≈ 68.2 µM)

Question: What about the MIC (Trichophyton rubrum; strain 3, after 96 hours) of the same compound?
Answer: 17.5 µg/mL (≈ 68.2 µM)

Question: What about the MIC (Trichophyton rubrum; strain 360, after 96 hours) of the same compound?
Answer: 7.5 µg/mL (≈ 29.2 µM)

Question: And the MIC (Trichophyton rubrum; strain Blehl, after 96 hours)?
Answer: 37.5 µg/mL (≈ 146 µM)

Question: And the MIC (Trichophyton rubrum; strain Haggerty, after 96 hours)?
Answer: 7.5 µg/mL (≈ 29.2 µM)

Question: And the IC50 (Trychomonas vaginalis; 50% suppression, read-out: Minimal Level to Produce 50% Suppression)?
Answer: 30 µg/mL (≈ 117 µM)

Question: What about the IC90 (Trychomonas vaginalis; 90% suppression, read-out: Minimal Level to Produce 90% Suppression) of the same compound?
Answer: 38 µg/mL (≈ 148 µM)
